Test results as given in US12723039B2, “Small molecule inhibitors of SLC15A4 with anti-inflammatory activity” (THE SCRIPPS RESEARCH INSTITUTE, priority 2020, dated 2026).

Experiments:
CpG (TLR9) = test: In vivo model of inflammation: CpG co-injection, serum cytokines; conditions: mice co-injected with compound and CpG (TLR9), single dose, serum after 6 hr
[1] = molecular target: T1, human SLC15A4 dileucine mutant (L14A, L15A, L318A, V319A) (Homo sapiens, UniProt Q8N697, L14A/L15A/L318A/V319A); test: SLC15A4 transport NFκB luciferase reporter assay in A549 cells; type: cell-based; conditions: for block of MDP transport in a dose-dependent fashion: FIG. 9; for suppression of MDP or Tri-DAP induced NFκB luciferase: A549 cells with membrane-trafficked SLC15A4 mutant
T1 construct: expressed in transfected cells
T1 sequence (Q8N697 whole entry L14A/L15A/L318A/V319A): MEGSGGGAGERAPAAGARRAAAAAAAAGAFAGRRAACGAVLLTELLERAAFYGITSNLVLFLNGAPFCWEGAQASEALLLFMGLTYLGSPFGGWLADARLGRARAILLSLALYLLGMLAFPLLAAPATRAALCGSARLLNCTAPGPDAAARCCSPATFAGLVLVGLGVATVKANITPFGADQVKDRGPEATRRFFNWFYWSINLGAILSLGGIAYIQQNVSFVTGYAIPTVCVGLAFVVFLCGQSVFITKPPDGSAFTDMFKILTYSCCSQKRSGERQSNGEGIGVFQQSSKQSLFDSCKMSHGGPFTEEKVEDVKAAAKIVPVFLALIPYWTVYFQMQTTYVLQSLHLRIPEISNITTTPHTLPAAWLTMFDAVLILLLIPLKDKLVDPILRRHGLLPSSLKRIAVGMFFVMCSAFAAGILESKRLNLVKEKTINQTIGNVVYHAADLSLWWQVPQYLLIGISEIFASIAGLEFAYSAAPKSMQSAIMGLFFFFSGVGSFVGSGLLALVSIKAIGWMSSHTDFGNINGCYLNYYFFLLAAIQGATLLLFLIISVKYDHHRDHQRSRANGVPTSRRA
Excerpt: Development of SLC15A4-Transport Luciferase Reporter Assay. […] The precise substrate scope of endolysosomal SLC15A4 is not established. However, several studies have implicated SLC15A4 to be a transporter of the bacterial-derived peptidoglycans, such as MDP and Tri-DAP, which are ligands of the immune sensors NOD1 and NOD2^27-29, 48. Recently, it has been shown that disruption of the dileucine motifs (DE)-XXXL-(L/I) or DXXLL of SLC15A3^49 and SLC15A4^50 can result in successful targeting to the plasma membrane. Considering that NODs signal through the NFκB pathway, we sought to develop an NFκB reporter assay as a strategy to measure SLC15A4 transport in cells.
Briefly, both wildtype (WT) human SLC15A4 and a dileucine mutant (L14A, LISA, L318A, V319A) were cloned in frame with the mCherry using a (GGGGS)3 linker in the pLPC lentiviral backbone. Lentiviral vectors were packaged in psPAX2 and pMD2.G packing plasmids and used to generate stable cell lines expressing either SLC15A4 WT or membrane-trafficked SLC15A4 mutant A549 cells (FIG. 5A). Stable reporter cells were subsequently generated from these SLC15A4 cell lines using the Promega Dual-Luciferase Reporter system (pGLA4.32 [luc2P/NFκB-RE/Hygro]) containing five copies of an NF-κB response element. We confirmed the production of luciferase upon exposure to MDP or Tri-DAP NOD ligands ([…]), which is suppressed when exposed to either triptolide (an NF[…]B inhibitor, FIG. 5C) ML130 (NOD1 inhibitor, not shown) or GSK717 (NOD2 inhibitor, not shown).

[2] = tested on: endogenous NOD signaling in human macrophages; test: Endogenous NOD signaling in human macrophages; type: cell-based; conditions: FIG. 11
[3] = tested on: endogenous NOD signaling in mouse macrophages; test: Endogenous NOD signaling in mouse macrophages; type: cell-based; conditions: FIG. 11
SLC25A20 = molecular target: T2, SLC25A20 (Homo sapiens, UniProt O43772); conditions: previously published work (ref. 46); cited from earlier work
T2 construct: endogenous in cells
T2 sequence (O43772 1-301): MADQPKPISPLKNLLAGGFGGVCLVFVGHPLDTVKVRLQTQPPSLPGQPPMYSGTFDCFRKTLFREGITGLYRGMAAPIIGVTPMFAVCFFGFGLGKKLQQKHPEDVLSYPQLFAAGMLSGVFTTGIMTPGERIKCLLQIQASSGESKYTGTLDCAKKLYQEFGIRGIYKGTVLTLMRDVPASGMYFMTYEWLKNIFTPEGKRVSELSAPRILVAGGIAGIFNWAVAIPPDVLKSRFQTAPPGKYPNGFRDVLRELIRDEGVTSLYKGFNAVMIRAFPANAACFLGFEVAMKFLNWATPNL

SMILES | block of MDP transport in a dose-dependent fashion [1] | in vivo efficacy: serum cytokines after CpG (CpG (TLR9)) | also measured
CCCC(=O)n1c(NCc2c[nH]c3ccc(Br)cc23)nc2ccccc21 [AJ2-3, 1-(2-(((5-bromo-1H-indol-3-yl)methyl)amino)-1H-benzo[d]imidazol-1-yl)butan-1-one] |  | active | 
C#CCCC1(CCC(=O)Nc2ccc3oc(=O)ccc3c2)N=N1 [FFF 3] |  |  | engagement of SLC25A20 (SLC25A20): highly engages
CC(C)[C@]12O[C@H]1[C@@H]1O[C@]13[C@]1(O[C@H]1C[C@H]1C4=C(CC[C@@]13C)C(=O)OC4)[C@@H]2O [triptolide, reference compound] |  |  | suppression of MDP or Tri-DAP induced NFκB luciferase [1]: suppressed
Cc1ccc(S(=O)(=O)n2c(N)nc3ccccc32)cc1 [ML130, reference compound] |  |  | suppression of MDP or Tri-DAP induced NFκB luciferase [1]: suppressed

Second part, led by results:

block of MDP transport in a dose-dependent fashion [1] | SMILES | in vivo efficacy: serum cytokines after CpG (CpG (TLR9)) | also measured
active | Brc1ccc2[nH]cc(CNc3nc4ccccc4[nH]3)c2c1 [AJ2-3A, N-((5-bromo-1H-indol-3-yl)methyl)-1H-benzo[d]imidazol-2-amine] |  | 
inactive controls | CCCC(=O)N(Cc1ccc2[nH]ccc2c1)C1Cc2ccccc2NC1=O (stereo not drawn) [AJ2-18, N-((1H-indol-5-yl)methyl)-N-(2-oxo-1,2,3,4-tetrahydroquinolin-3-yl)butyramide] |  | 
active | CCn1c2ccccc2c2cc(CNc3nc4ccccc4n3C)ccc21 [AJ2-30, N-((9-ethyl-9H-carbazol-3-yl)methyl)-1-methyl-1H-benzo[d]imidazol-2-amine] | active | block of endogenous NOD signaling in human macrophages [2]: active; block of endogenous NOD signaling in mouse macrophages [3]: active
inactive controls | CCCC(=O)N(Cc1ccc2[nH]ccc2c1)C1Cc2ccccc2C1 [AJ2-22, N-((1H-indol-5-yl)methyl)-N-(2,3-dihydro-1H-inden-2-yl)butyramide] | inactive control | 
